pIC50, pKi: −log10 of the molar value. Blank lines part the entries; values can stand above or below the compound they belong to. Bridge positions count the residues as written; N and C are the ends. Square brackets hold non-standard residues; d marks the D form. Peptide text beside a SMILES is read from it. * marks the point of attachment. Phe(4-NO2) = N[C@@H](Cc1ccc([N+](=O)[O-])cc1)C(=O)O; Phe(4-tBu) = CC(C)(C)c1ccc(C[C@H](N)C(=O)O)cc1; Bip = N[C@@H](Cc1ccc(-c2ccccc2)cc1)C(=O)O; pNA = O=[N+]([O-])c1ccc(N*)cc1; Nle = CCCC[C@H](N)C(=O)O
Columns and labels:
Chymase [1] = molecular target: T1, Chymase (Homo sapiens, UniProt P23946); test: Inhibition of recombinant human chymase expressed in Pichia pastoris X-33 cells using NleTDY-pNA as substrate assessed as cleavage of pNA at pH 7.2 and 298 K by spectrophotometry analysis
T1 sequence (P23946 whole entry): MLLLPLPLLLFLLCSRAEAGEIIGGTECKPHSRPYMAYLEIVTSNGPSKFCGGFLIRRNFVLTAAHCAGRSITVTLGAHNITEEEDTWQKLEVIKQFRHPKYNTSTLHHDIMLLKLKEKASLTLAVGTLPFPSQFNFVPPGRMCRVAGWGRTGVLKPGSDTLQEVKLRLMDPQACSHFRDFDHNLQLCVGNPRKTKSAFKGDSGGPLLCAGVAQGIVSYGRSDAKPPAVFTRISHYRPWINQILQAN

Cathepsin G = molecular target: T2, Cathepsin G (Homo sapiens, UniProt P08311); test: Inhibition of human cathepsin G using Suc-AAPF-MCA as substrate at pH 7.2 and 298 K measured every 60 secs for 600 secs
T2 sequence (P08311 whole entry): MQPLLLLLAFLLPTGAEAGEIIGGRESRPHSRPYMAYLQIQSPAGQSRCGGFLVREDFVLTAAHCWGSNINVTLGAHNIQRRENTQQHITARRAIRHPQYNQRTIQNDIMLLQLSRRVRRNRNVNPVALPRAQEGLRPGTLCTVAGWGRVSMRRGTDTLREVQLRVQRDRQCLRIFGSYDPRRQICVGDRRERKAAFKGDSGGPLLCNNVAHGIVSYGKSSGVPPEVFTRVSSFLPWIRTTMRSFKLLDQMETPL

Chymotrypsin = Chymotrypsin (Homo sapiens, UniProt Q99895+P17538+P40313+Q6GPI1); test: Inhibition of human chymotrypsin using Suc-AAPF-MCA as substrate at pH 8 and 298 K measured every 60 secs for 600 secs; type: protein assay
Kallikrein-7 = Kallikrein-7 (Homo sapiens, UniProt P49862); test: Inhibition of recombinant human KLK7 expressed in Pichia pastoris X-33 using KHLY-pNA as substrate at pH 8 and 298 K measured every 60 secs for 600 secs
Neutrophil elastase = molecular target: T3, Neutrophil elastase (Homo sapiens, UniProt P08246); test: Inhibition of human neutrophil elastase using MeOSuc-AAPV-MCA as substrate at pH 7.2 and 298 K measured every 60 secs for 600 secs
T3 sequence (P08246 whole entry): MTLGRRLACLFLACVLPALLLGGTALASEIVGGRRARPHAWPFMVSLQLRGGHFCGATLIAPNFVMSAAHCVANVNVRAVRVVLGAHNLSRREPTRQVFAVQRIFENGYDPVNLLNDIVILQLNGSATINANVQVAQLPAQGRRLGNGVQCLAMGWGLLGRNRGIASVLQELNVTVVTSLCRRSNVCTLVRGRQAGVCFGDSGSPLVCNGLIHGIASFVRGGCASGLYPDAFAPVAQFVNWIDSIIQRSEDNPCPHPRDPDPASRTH

[2] = Inhibition of human cationic trypsin using Boc-VPR-MCA as substrate at pH 8 and 298 K measured every 60 secs for 600 secs
Prothrombin = Prothrombin (Homo sapiens, UniProt P00734); test: Inhibition of human thrombin using Boc-VPR-MCA as substrate at pH 8 and 298 K measured every 60 secs for 600 secs
Coagulation factor XII = molecular target: T4, Coagulation factor XII (Homo sapiens, UniProt P00748); test: Inhibition of human coagulation factor 12a using Ac-QRFR-pNA as substrate at pH 8 and 298 K measured every 60 secs for 600 secs
T4 sequence (P00748 whole entry): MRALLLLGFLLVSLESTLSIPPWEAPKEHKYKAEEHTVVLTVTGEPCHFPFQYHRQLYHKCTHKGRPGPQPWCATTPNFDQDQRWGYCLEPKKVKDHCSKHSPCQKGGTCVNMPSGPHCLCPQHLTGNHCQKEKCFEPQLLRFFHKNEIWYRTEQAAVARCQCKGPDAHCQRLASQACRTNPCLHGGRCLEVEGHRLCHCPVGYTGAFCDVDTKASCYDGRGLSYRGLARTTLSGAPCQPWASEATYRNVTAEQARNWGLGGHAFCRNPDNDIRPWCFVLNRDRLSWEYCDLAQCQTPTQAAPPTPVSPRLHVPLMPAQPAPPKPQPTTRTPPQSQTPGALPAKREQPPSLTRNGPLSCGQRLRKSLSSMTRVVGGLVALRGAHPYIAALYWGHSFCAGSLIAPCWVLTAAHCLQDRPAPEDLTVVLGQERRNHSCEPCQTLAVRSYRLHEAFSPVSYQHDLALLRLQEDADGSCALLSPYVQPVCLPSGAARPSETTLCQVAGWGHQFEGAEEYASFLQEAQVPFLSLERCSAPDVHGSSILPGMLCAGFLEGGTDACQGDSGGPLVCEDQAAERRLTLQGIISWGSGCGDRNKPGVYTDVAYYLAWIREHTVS

Homo sapiens = species on record: Homo sapiens; test: Selectivity index, ratio of Ki for human cathepsin G using Suc-AAPF-MCA as substrate to Ki for recombinant human chymase expressed in Pichia pastoris X-33 cells using NleTDY-pNA as substrate
Chymase [3] = molecular target: T1, Chymase; test: Substrate activity at recombinant human chymase expressed in Pichia pastoris X-33 cells assessed as Km by spectrophotometry analysis; type: ADME
Chymase [4] = molecular target: T1, Chymase; test: Substrate activity at recombinant human chymase expressed in Pichia pastoris X-33 cells assessed as Kcat by spectrophotometry analysis; type: ADME
Chymase [5] = molecular target: T1, Chymase; test: Substrate activity at recombinant human chymase expressed in Pichia pastoris X-33 cells assessed as ratio of Kcat/Km by spectrophotometry analysis; type: ADME

Sequence of Kallikrein-7 (P49862 whole entry): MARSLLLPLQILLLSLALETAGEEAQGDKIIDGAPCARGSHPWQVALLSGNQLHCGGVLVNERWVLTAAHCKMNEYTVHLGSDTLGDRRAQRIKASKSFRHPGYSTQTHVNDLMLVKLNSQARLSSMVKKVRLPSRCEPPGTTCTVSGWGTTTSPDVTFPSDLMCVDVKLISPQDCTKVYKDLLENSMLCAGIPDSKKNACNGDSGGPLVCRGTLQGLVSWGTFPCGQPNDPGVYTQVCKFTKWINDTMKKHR

Structure (SMILES): N=C(N)NCCC[C@@H]1NC(=O)CNC(=O)[C@H](CC(=O)O)NC(=O)[C@@H]2CCCN2C(=O)[C@H](Cc2ccccc2)NC(=O)[C@@H]2CSSC[C@H](NC1=O)C(=O)N[C@@H](CCC(N)=O)C(=O)N[C@@H](Cc1ccc([N+](=O)[O-])cc1)C(=O)N[C@@H](CO)C(=O)N[C@@H](CCC(=O)O)C(=O)N1CCC[C@H]1C(=O)N1CCC[C@H]1C(=O)N[C@@H](CCC(=O)O)C(=O)N2 (cyclo(CFPDGRCQ[Phe(4-NO2)]SEPPE); disulfide 1-7)
pKi (Chymase [1]): 7.27
pKi (Cathepsin G): 5.28
Ki (Chymotrypsin): 0.92 µM
pIC50 (Kallikrein-7): < 5.00
pIC50 (Neutrophil elastase): < 5.00
pIC50 [2]: < 5.00
pIC50 (Prothrombin): < 5.00
pIC50 (Coagulation factor XII): < 5.00
Ratio Ki (Homo sapiens): 96

Structure (SMILES): CC(C)(C)c1ccc(C[C@@H]2NC(=O)[C@H](CCC(N)=O)NC(=O)[C@@H]3CSSC[C@H](NC(=O)[C@H](CCC(=O)O)NC(=O)[C@@H]4CCCN4C(=O)[C@@H]4CCCN4C(=O)[C@H](CCC(=O)O)NC(=O)[C@H](CO)NC2=O)C(=O)N[C@@H](Cc2ccccc2)C(=O)N2CCC[C@H]2C(=O)N[C@@H](CC(=O)O)C(=O)NCC(=O)N[C@@H](CCCNC(=N)N)C(=O)N3)cc1 (cyclo(CFPDGRCQ[Phe(4-tBu)]SEPPE); disulfide 1-7)
pIC50 (Chymase [1]): < 5.00

Structure (SMILES): CC[C@H](C)[C@@H]1NC(=O)[C@@H]2CCCN2C(=O)[C@@H]2CCCN2C(=O)[C@H](CCC(=O)O)NC(=O)[C@H](CO)NC(=O)[C@H](Cc2ccc(O)cc2)NC(=O)[C@H](CCC(N)=O)NC(=O)[C@@H]2CSSC[C@H](NC1=O)C(=O)N[C@@H](Cc1ccccc1)C(=O)N1CCC[C@H]1C(=O)N[C@@H](CC(=O)O)C(=O)NCC(=O)N[C@@H](CCCNC(=N)N)C(=O)N2 (cyclo(CFPDGRCQYSEPPI); disulfide 1-7)
pKi (Cathepsin G): 9.59
Ki (Chymotrypsin): 0.15 µM

Structure (SMILES): C[C@@H](O)[C@H](NC(=O)[C@@H](N)Cc1ccccc1)C(=O)N[C@@H](CC(=O)O)C(=O)N[C@@H](Cc1ccc(O)cc1)C(=O)Nc1ccc([N+](=O)[O-])cc1 (H-FTDY-pNA)
Km (Chymase [3]): 370 µM
Kcat (Chymase [4]): 14 s⁻¹
Kcat/Km (Chymase [5]): 3.8 ×10⁴ /M/s

Structure (SMILES): C[C@@H](O)[C@H](NC(=O)[C@@H](NC(=O)[C@@H](N)CCCNC(=N)N)[C@@H](C)O)C(=O)N[C@@H](Cc1ccc(O)cc1)C(=O)Nc1ccc([N+](=O)[O-])cc1 (H-RTTY-pNA)
Km (Chymase [3]): 530 µM
Kcat (Chymase [4]): 18 s⁻¹
Kcat/Km (Chymase [5]): 3.4 ×10⁴ /M/s

Structure (SMILES): CCCC[C@H](N)C(=O)N[C@H](C(=O)N[C@@H](CC(=O)O)C(=O)N[C@@H](Cc1ccc(O)cc1)C(=O)Nc1ccc([N+](=O)[O-])cc1)[C@@H](C)O (H-[Nle]TDY-pNA)
Km (Chymase [3]): 550 µM
Kcat (Chymase [4]): 22 s⁻¹
Kcat/Km (Chymase [5]): 4 ×10⁴ /M/s

Structure (SMILES): C[C@@H](O)[C@H](NC(=O)[C@H](CCC(=O)O)NC(=O)[C@@H](N)CCCNC(=N)N)C(=O)N[C@@H](Cc1ccc(O)cc1)C(=O)Nc1ccc([N+](=O)[O-])cc1 (H-RETY-pNA)
Km (Chymase [3]): 410 µM
Kcat (Chymase [4]): 13 s⁻¹
Kcat/Km (Chymase [5]): 3.2 ×10⁴ /M/s

Structure (SMILES): CC[C@H](C)[C@@H]1NC(=O)[C@@H]2CCCN2C(=O)[C@@H]2CCCN2C(=O)[C@H]([C@@H](C)CC)NC(=O)[C@H](CO)NC(=O)[C@H](CCCCN)NC(=O)[C@H]([C@@H](C)O)NC(=O)[C@@H]2CSSC[C@H](NC1=O)C(=O)N[C@@H](Cc1ccccc1)C(=O)N1CCC[C@H]1C(=O)N[C@@H](CC(=O)O)C(=O)NCC(=O)N[C@@H](CCCNC(=N)N)C(=O)N2
pIC50 (Chymase [1]): < 5.30

Structure (SMILES): C[C@@H](O)[C@@H]1NC(=O)[C@@H]2CSSC[C@H](NC(=O)[C@H](CCC(=O)O)NC(=O)[C@@H]3CCCN3C(=O)[C@@H]3CCCN3C(=O)[C@H](CCC(=O)O)NC(=O)[C@H](CO)NC(=O)[C@H](Cc3ccc(O)cc3)NC1=O)C(=O)N[C@@H](Cc1ccccc1)C(=O)N1CCC[C@H]1C(=O)N[C@@H](CC(=O)O)C(=O)NCC(=O)N[C@@H](CCCNC(=N)N)C(=O)N2 (cyclo(CFPDGRCTYSEPPE); disulfide 1-7)
pKi (Cathepsin G): 7.85
Ki (Chymotrypsin): 0.011 µM

Further lines, results first:

pKi (Cathepsin G): > 10.00
Ki (Chymotrypsin): 0.00042 µM
Structure (SMILES): CC[C@H](C)[C@@H]1NC(=O)[C@@H]2CCCN2C(=O)[C@@H]2CCCN2C(=O)[C@H](CCC(=O)O)NC(=O)[C@H](CO)NC(=O)[C@H](Cc2ccc(O)cc2)NC(=O)[C@H](C)NC(=O)[C@@H]2CSSC[C@H](NC1=O)C(=O)N[C@@H](Cc1ccccc1)C(=O)N1CCC[C@H]1C(=O)N[C@@H](CC(=O)O)C(=O)NCC(=O)N[C@@H](Cc1ccccc1)C(=O)N2 (cyclo(AYSEPPICFPDGFC); disulfide 8-14)

pKi (Cathepsin G): 8.09
Ki (Chymotrypsin): 0.00088 µM
Structure (SMILES): CC[C@H](C)[C@@H]1NC(=O)[C@@H]2CCCN2C(=O)[C@@H]2CCCN2C(=O)[C@H](CCC(=O)O)NC(=O)[C@H](CO)NC(=O)[C@H](Cc2ccc(O)cc2)NC(=O)[C@H]([C@@H](C)O)NC(=O)[C@@H]2CSSC[C@H](NC1=O)C(=O)N[C@@H](Cc1ccccc1)C(=O)N1CCC[C@H]1C(=O)N[C@@H](CC(=O)O)C(=O)NCC(=O)N[C@@H](CCCNC(=N)N)C(=O)N2 (cyclo(CFPDGRCTYSEPPI); disulfide 1-7)

pIC50 (Chymase [1]): < 5.30
Structure (SMILES): CC[C@H](C)[C@@H]1NC(=O)[C@@H]2CCCN2C(=O)[C@@H]2CCCN2C(=O)[C@H]([C@@H](C)CC)NC(=O)[C@H](CO)NC(=O)[C@H](Cc2ccc(O)cc2)NC(=O)[C@H](CC(=O)O)NC(=O)[C@@H]2CSSC[C@H](NC1=O)C(=O)N[C@@H](Cc1ccccc1)C(=O)N1CCC[C@H]1C(=O)N[C@@H](CC(=O)O)C(=O)NCC(=O)N[C@@H](Cc1ccccc1)C(=O)N2 (cyclo(CDYSIPPICFPDGF); disulfide 1-9)

pKi (Cathepsin G): 8.13
Ki (Chymotrypsin): 0.0015 µM
Structure (SMILES): CC[C@H](C)[C@@H]1NC(=O)[C@@H]2CCCN2C(=O)[C@@H]2CCCN2C(=O)[C@H](Cc2ccc(-c3ccccc3)cc2)NC(=O)[C@H](CO)NC(=O)[C@H](Cc2ccc(O)cc2)NC(=O)[C@H](C)NC(=O)[C@@H]2CSSC[C@H](NC1=O)C(=O)N[C@@H](Cc1ccccc1)C(=O)N1CCC[C@H]1C(=O)N[C@@H](CC(=O)O)C(=O)NCC(=O)N[C@@H](Cc1ccccc1)C(=O)N2 (cyclo(AYS[Bip]PPICFPDGFC); disulfide 8-14)

pIC50 (Chymase [1]): < 5.30
Structure (SMILES): CCCC[C@@H]1NC(=O)CNC(=O)[C@H](CC(=O)O)NC(=O)[C@@H]2CCCN2C(=O)[C@H](Cc2ccccc2)NC(=O)[C@@H]2CSSC[C@H](NC1=O)C(=O)N[C@@H](CC(=O)O)C(=O)N[C@@H](Cc1ccc(O)cc1)C(=O)N[C@@H](CO)C(=O)N[C@@H]([C@@H](C)CC)C(=O)N1CCC[C@H]1C(=O)N1CCC[C@H]1C(=O)N[C@@H]([C@@H](C)CC)C(=O)N2 (cyclo(CDYSIPPICFPDG[Nle]); disulfide 1-9)
